# Measurements as given in US11401303B2, “Synthetic peptide BRAP and application in preparation of anti-inflammatory drug for COVID-19 thereof” (TAIAN CITY QIHANG BIOTECHNOLOGY CO., priority 2020, dated 2022).
# What was measured:
# [1] = system: OVA-induced allergic rhinitis; test: Rat allergic nasal inflammation (OVA-induced allergic rhinitis), intranasal administration; assay type: in vivo, SD rat; conditions: all dose groups of the peptide; bilateral nasal cavities 50 μL/side, 4 weeks, continued OVA provocation
# Experimental: SD rat modeling: two stages of intraperitoneal injection for sensitization and intranasal dripping for stimulation. Ovalbumin was injected intraperitoneally, and 1 mg ovalbumin (V-class Sigma, USA) was dissolved in 1 ml normal saline, and 30 mg of aluminum hydroxide was added as an immunologic adjuvant. Each rat was intraperitoneally injected 1 ml ovalbumin suspension prepared above with 1 ml/time every other day and for 7 times in total; and stimulated intranasally with ovalbumin on the 15th day; 20 mg ovalbumin (V-class Sigma, USA) were dissolved in 1 ml normal saline to be prepared into a 2% solution; and the 2% ovalbumin solution was used for stimulation by nasal dripping; and 50 ul nasal drips were administered in each of the nasal cavities of each rat for 7 consecutive days.
# Blank control group: 30 mg of aluminum hydroxide+1 ml of normal saline were mixed evenly, and then injected intraperitoneally; and the method was the same as the above.
# Normal saline was dripped into nasal cavities on the 15th day.
# After the final nasal dripping was performed, each rat was observed and evaluated according to a scoring table: Sneezing, nose scratching, gasping and nasal secretions
# 1. Administration way: a drug was administered with a micro-sampling gun, bilateral nasal cavities of a rat were administered with 50 μL/side, after being administered for 20 min, a 2% ovalbumin solution was administered to bilateral nasal cavities of the rat; 50 μL/side nasal dripping was administered for provocation; the above treatment was performed for 4 consecutive weeks to observe the pharmacodynamic effect.
# High-dose synthetic peptide brap: a synthetic peptide brap freeze-dried powder (5 mg/bottle) was taken, and 1.63 ml sterile saline solution was added for dissolving;
# medium-dose synthetic peptide brap: a synthetic peptide brap freeze-dried powder (5 mg/bottle) was taken, and 4.89 ml sterile saline solution was added for dissolving;
# low-dose synthetic peptide brap: a synthetic peptide brap freeze-dried powder (5 mg/bottle) was taken, and 14.67 ml sterile saline solution was added for dissolving;
# [2] = system: LPS-induced acute lung injury; test: LPS-induced acute lung injury in mice, HE pathological examination of lung tissues; assay type: in vivo, Balb/C mice; conditions: 16 mg/kgBW via tail vein once/day; LPS 5 mg/kgBW i.p.
# Experimental: 1. Grade-SPF male Balb/C mice, body weight: 20±2 g, and n=48
# 3. Grouping and treatment: mice were randomly divided into 8 groups (A-H), 6 pcs./group;
# 3-1: 3 different treatments were given for 3 consecutive days respectively before modeling:
# A. normal control group: normal saline was injected via the tail vein for once/day;
# B. LPS model group: normal saline was injected via the tail vein for once/day;
# C. model sp2 administration group: sp2 (16 mg/kgBW) was injected via the tail vein for once/day;
# D. model high-dose brap administration group: brap (16 mg/kgBW) was injected via the tail vein for once/day;
# E. model medium-dose brap administration group: brap (8 mg/kgBW) was injected via the tail vein for once/day;
# F. model low-dose brap administration group: brap (4 mg/kgBW) was injected via the tail vein for once/day;
# G. model brap intranasal administration group: brap (3 mM) was administered nasal administration on both sides, 15 μl/each side; once a day;
# H. model dexamethasone administration group (a positive control group): dexamethasone, DEX, 5 mg/kg was injected intraperitoneally for once a day.
# Animals from groups A-H were continuously administered the above treatments for 30 min respectively, then group A was intraperitoneally injected isopyknic normal saline, and other groups were intraperitoneally injected LPS 5 mg/kgBW.
# 1. Tissue section and extending
# 2. Tissues were dewaxed and hydrated.
# 3. Tissues were dyed with a hematoxylin stain for 5-20 min (adjusted according to different tissues and experimental requirements), and washed by tap water.
# 4. Then, tissues were differentiated by a differentiation solution for 30 s.
# 5. Tissues were soaked by tap water for 15 min or warm water (about 50° C.) for 5 min.
# 6. Tissues were put in an Eosin stain for 2 min (adjusted according to different tissues and experimental requirements), and washed by tap water.
# 7. Then, the tissues were soaked by tap water for 5 min.
# 8. Dehydration by gradient alcohol: Tissues were dehydrated by 95%, 100% I, and 100% II for 1 min each;
# 9. Transparency by xylene: tissues were subjected to xylene I and II for 10 min.
# 10. Neutral balsam mounting.
# 11. Then, it was put and dried in an oven at 60° C., and observed under microscope.
substance,measurement,setting,value
sp2: control synthetic peptide with an amino acid sequence as shown in SEQ ID No: 2 (RVLNGPEEEAAAPAE) [reference compound],Scoring change before and after treatment,[1],increases
same,Lung tissue pathology (HE),[2],inflammatory cell infiltration is obvious
